≈ marks a conversion by molar mass, not a printed value.
For CCOCC, which boiling point is on record?
The boiling point was 34.6 °C.

What about the log10 Henry constant (atm·m³/mol) of the same compound?
Its log10 Henry constant (atm·m³/mol) is -2.91.

What about the log10 Koa of the same compound?
The log10 Koa was 2.19.

What about the log10 vapour pressure (mmHg) of the same compound?
Its log10 vapour pressure (mmHg) is 2.73.

And the melting point?
Its melting point is -116 °C.

What about the ready biodegradability of the same compound?
Its ready biodegradability is “not readily biodegradable”.

With O=C(Nc1ccc(Oc2ccc(Cl)cc2)c(Cl)c1)c1cc(I)cc(I)c1O as the compound, how does the melting point read?
Its melting point is 169 °C.

Which ready biodegradability does the source give for CC(O)C(C)O (configuration not stated) here?
Its ready biodegradability is “readily biodegradable”.

Which boiling point does the source give for Cc1c(O)cccc1O here?
Its boiling point is 264 °C.

And the melting point?
The melting point was 120 °C.

And the ready biodegradability?
Its ready biodegradability is “not readily biodegradable”.

For CCC(=O)CO, which boiling point is on record?
Its boiling point is 160 °C.

With ONc1ccccc1 as the compound, how does the melting point read?
The melting point was 83.5 °C.

Which boiling point does the source give for CC(C)CCCC(C)CCO (configuration not stated) here?
The boiling point was 212 °C.

For Cc1ccc(/N=N/c2c(O)ccc3ccccc23)c(C)c1, which melting point is on record?
The melting point was 166 °C.

Which log10 vapour pressure (mmHg) does the source give for CC1(C)[C@H](C(=O)O[C@H](C#N)c2cccc(Oc3ccccc3)c2)[C@@H]1C=C(Br)Br here?
Its log10 vapour pressure (mmHg) is -7.82.

And the melting point?
Its melting point is 100 °C.

Which ready biodegradability does the source give for CCCCCCCCCCCCCCOC(=O)CCCCCCCCCCCCC here?
The ready biodegradability was “readily biodegradable”.

With Oc1ccc2ccccc2c1/N=N/c1ccccc1 as the compound, how does the log10 Koc (L/kg) read?
The log10 Koc (L/kg) was 3.58.

And the melting point?
Its melting point is 134 °C.

For NC(=O)C(N)=O, which log10 vapour pressure (mmHg) is on record?
Its log10 vapour pressure (mmHg) is -7.2.

Which boiling point does the source give for c1ccc(N2CCNCC2)cc1 here?
Its boiling point is 286 °C.

What about the log10 vapour pressure (mmHg) of the same compound?
Its log10 vapour pressure (mmHg) is -2.26.

With Cc1c[nH]c(=O)[nH]c1=O as the compound, how does the melting point read?
Its melting point is 316 °C.

Which melting point does the source give for N#CCc1cccc2ccccc12 here?
Its melting point is 32.5 °C.

For CN(C)C(=O)CCCOC(=O)c1ccccc1, which melting point is on record?
The melting point was 40.5 °C.

With CCC(C)=CCl as the compound, how does the boiling point read?
Its boiling point is 96.5 °C.

Which boiling point does the source give for CCCCC1CCC(=O)O1 (configuration not stated) here?
The boiling point was 234 °C.

For O=C(O)c1cc(Cl)cc(Cl)c1O, which melting point is on record?
The melting point was 220 °C.

Which melting point does the source give for O=C(O)c1c(Br)cccc1Br here?
Its melting point is 150 °C.

For O=C(O)CCSCCC(=O)O, which melting point is on record?
The melting point was 129 °C.

And the ready biodegradability?
Its ready biodegradability is “readily biodegradable”.

Which melting point does the source give for CCCC(O)/C=C/C=C/C=C/C#CC#CCCCO (configuration not stated) here?
The melting point was 54 °C.

For CC(=O)C(C)(C)C(C)=O, which boiling point is on record?
Its boiling point is 173 °C.

What about the melting point of the same compound?
The melting point was 19 °C.

For CC(C)N=C=O, which boiling point is on record?
Its boiling point is 74.5 °C.

For CC(=O)Nc1ccc(S(=O)(=O)Nc2ccc([N+](=O)[O-])cc2)cc1, which melting point is on record?
Its melting point is 240 °C.

Which melting point does the source give for CCc1ccc(O)cc1O here?
The melting point was 98.5 °C.

For OCc1cccc(F)c1, which boiling point is on record?
Its boiling point is 201 °C.

Which log10 vapour pressure (mmHg) does the source give for C=CC(=O)OCCC here?
The log10 vapour pressure (mmHg) was 1.16.

With CC1CCCC(C)C1C (configuration not stated) as the compound, how does the boiling point read?
The boiling point was 142 °C.

With Cc1ccc(Br)cc1N as the compound, how does the melting point read?
The melting point was 33 °C.

With Cc1cccc2c1cc(C)c1cccc(C)c12 as the compound, how does the log10 biodegradation half-life (days) read?
Its log10 biodegradation half-life (days) is 1.92.

For O=c1cn[nH]c(=O)[nH]1, which melting point is on record?
The melting point was 274 °C.

Which boiling point does the source give for COC(C)(C)CC(C)=O here?
Its boiling point is 160 °C.

And the log10 vapour pressure (mmHg)?
Its log10 vapour pressure (mmHg) is 0.342.

And the ready biodegradability?
Its ready biodegradability is “not readily biodegradable”.

For CC(=O)CCCO, which boiling point is on record?
Its boiling point is 209 °C.

For CC(C)CC(O)CC(C)C, which boiling point is on record?
The boiling point was 174 °C.

What about the log10 vapour pressure (mmHg) of the same compound?
Its log10 vapour pressure (mmHg) is -0.519.

For O=C(O)CCCCC[N+](=O)[O-], which ready biodegradability is on record?
The ready biodegradability was “readily biodegradable”.

With COc1ccc2c(c1O)-c1cccc3c1C(C2)N(C)CC3 (configuration not stated) as the compound, how does the melting point read?
The melting point was 124 °C.

With Fc1ccc(C(c2ccc(F)cc2)C(Cl)(Cl)Cl)cc1 as the compound, how does the melting point read?
Its melting point is 44.5 °C.

With OCCO as the compound, how does the boiling point read?
Its boiling point is 197 °C.

What about the log10 Henry constant (atm·m³/mol) of the same compound?
The log10 Henry constant (atm·m³/mol) was -7.22.

What about the log10 vapour pressure (mmHg) of the same compound?
The log10 vapour pressure (mmHg) was -1.04.

What about the ready biodegradability of the same compound?
The ready biodegradability was “readily biodegradable”.

For NC(=O)Oc1ccc(Cc2ccccc2)cc1, which melting point is on record?
Its melting point is 148 °C.

With OCCCCCCCCCCl as the compound, how does the melting point read?
The melting point was 28 °C.

With CCC(C)CCc1ccccc1 (configuration not stated) as the compound, how does the boiling point read?
Its boiling point is 220 °C.

For CC(=O)c1ccc(C#N)cc1, which melting point is on record?
The melting point was 57.5 °C.

What does the source list for O=C1CCC(=O)O1?
boiling point: 261 °C; log10 vapour pressure (mmHg): -2.82; melting point: 119 °C

Which boiling point does the source give for FC(F)(F)CCBr here?
The boiling point was 63.5 °C.

Which results are given for Cc1cccc2cccnc12?
boiling point: 248 °C; log10 vapour pressure (mmHg): -1.6; melting point: -80 °C

For CCCCNC(=S)NCCCC, which melting point is on record?
The melting point was 64 °C.

For Cc1cncnc1, which boiling point is on record?
The boiling point was 153 °C.

And the melting point?
The melting point was 30.5 °C.

With Clc1cc(-c2c(Cl)cccc2Cl)c(Cl)c(Cl)c1Cl as the compound, how does the log10 Henry constant (atm·m³/mol) read?
The log10 Henry constant (atm·m³/mol) was -4.41.

For C/N=C(\NC)NCc1ccccc1, which melting point is on record?
The melting point was 196 °C.

With CCOP(=O)(OCC)SCS(=O)CC (configuration not stated) as the compound, how does the solubility read?
Its solubility is 30.7 mM (≈ 8000 µg/mL).

For FC(Cl)(Cl)Br, which boiling point is on record?
Its boiling point is 52 °C.

And the melting point?
Its melting point is -106 °C.

Which results are given for CCC(=O)C(=O)CC?
boiling point: 130 °C; melting point: -10 °C

For c1ccc2c(c1)NCCN2, which boiling point is on record?
Its boiling point is 289 °C.

And the melting point?
The melting point was 99 °C.

For O=C(NO)c1ccccc1, which melting point is on record?
The melting point was 128 °C.

Which melting point does the source give for O[C@H]1[C@H](O)[C@@H](O)[C@H](O)[C@@H](O)[C@H]1O (racemic) here?
The melting point was 237 °C.

For CCCCCCCCCCCCCC(CCCCCCCCCCCC)CCCCCCCCCCCC, which melting point is on record?
Its melting point is 13.7 °C.

For CC(C)(OC1CCCCC1)C(=O)O, which melting point is on record?
The melting point was 75 °C.

Which log10 Koa does the source give for Brc1ccc(Oc2ccc(Br)c(Br)c2Br)c(Br)c1 here?
The log10 Koa was 11.7.

And the log10 vapour pressure (mmHg)?
Its log10 vapour pressure (mmHg) is -8.14.

What about the logP of the same compound?
The logP was 7.37.

For CC(C)(C)CCC(C)(C)C, which boiling point is on record?
Its boiling point is 137 °C.

What about the log10 vapour pressure (mmHg) of the same compound?
The log10 vapour pressure (mmHg) was 0.942.

And the melting point?
The melting point was -12.6 °C.

Which melting point does the source give for O=C1CC[C@@H](C(=O)O)N1 here?
Its melting point is 185 °C.

With Nc1ncnc2c1ncn2[C@]1(CO)O[C@H](CO)[C@@H](O)[C@H]1O as the compound, how does the melting point read?
The melting point was 212 °C.

With CN(C)CCC=C1c2ccccc2CCc2ccccc21 as the compound, how does the melting point read?
The melting point was 196 °C.

Which log10 Koc (L/kg) does the source give for CCOP(=O)(NC(C)C)Oc1ccc(S(C)(=O)=O)c(C)c1 (configuration not stated) here?
Its log10 Koc (L/kg) is 1.64.

Which boiling point does the source give for COC(=O)c1ccccc1O here?
The boiling point was 223 °C.

And the log10 vapour pressure (mmHg)?
The log10 vapour pressure (mmHg) was -1.46.

What about the melting point of the same compound?
The melting point was -8 °C.

With CC=COCC as the compound, how does the boiling point read?
Its boiling point is 71.5 °C.

Which boiling point does the source give for Fc1c(F)c(F)c(F)c(F)c1F here?
Its boiling point is 80.2 °C.

And the log10 vapour pressure (mmHg)?
The log10 vapour pressure (mmHg) was 1.93.

For COC1=C(OC)C(=O)C(C)=C(C)C1=O, which melting point is on record?
Its melting point is 62.5 °C.

For C=C[Si](C)(Cl)Cl, which boiling point is on record?
Its boiling point is 92.5 °C.

With C=CCN1CC[C@]23c4c5ccc(O)c4O[C@H]2[C@@H](O)C=C[C@H]3[C@H]1C5 as the compound, how does the melting point read?
Its melting point is 208 °C.

For Clc1ccc(Cl)c(-c2ccc(Cl)c(Cl)c2Cl)c1, which log10 Henry constant (atm·m³/mol) is on record?
The log10 Henry constant (atm·m³/mol) was -4.13.

And the log10 Koc (L/kg)?
The log10 Koc (L/kg) was 4.62.

What about the log10 vapour pressure (mmHg) of the same compound?
The log10 vapour pressure (mmHg) was -4.77.

Which melting point does the source give for O=C[O-].[NH4+] here?
The melting point was 116 °C.

With CC(C)C(O)CO (configuration not stated) as the compound, how does the boiling point read?
The boiling point was 206 °C.

Which log10 Koa does the source give for Clc1cc2c(cc1Cl)Oc1cc(Cl)c(Cl)cc1O2 here?
Its log10 Koa is 10.1.

And the log10 Koc (L/kg)?
Its log10 Koc (L/kg) is 6.5.

What about the log10 vapour pressure (mmHg) of the same compound?
The log10 vapour pressure (mmHg) was -8.82.

What about the melting point of the same compound?
The melting point was 305 °C.

And the ready biodegradability?
The ready biodegradability was “not readily biodegradable”.

For C=CCCCCC, which boiling point is on record?
The boiling point was 93.6 °C.

And the log10 vapour pressure (mmHg)?
Its log10 vapour pressure (mmHg) is 1.77.

What about the melting point of the same compound?
The melting point was -120 °C.

With CC(C)(N=C=O)c1cccc(C(C)(C)N=C=O)c1 as the compound, how does the log10 vapour pressure (mmHg) read?
The log10 vapour pressure (mmHg) was -2.49.

Source: the OPERA property sets (Mansouri et al. 2018)
